In patent US9115143B2, “Substituted indole derivatives as gamma secretase modulators” (Janssen Pharmaceuticals, Inc., priority 2011, dated 2015):
pIC50: −log10 of the molar value.

Columns and labels:
[1] = tested on: Aβ42; assay: Screening for γ-secretase-modulating activity: Aβ42 in supernatant of SKNBE2 cells carrying hAPP 695 wild type (Alphalisa); assay type: cell-based, human; conditions: overnight incubation, Alphalisa on supernatant
Summary of the method: (§1)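 Secreted Aβ42 (C-terminal/N-terminal antibody pair) and Aβtotal (N-terminal/mid-region pair) were quantified by AlphaLISA after overnight compound exposure of wild-type hAPP 695 SKNBE2 cells at 37 °C. Values expressed relative to compound-free maximum, with IC50 from nonlinear 4-parameter regression.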

[2] = tested on: Aβtotal; assay: Screening for γ-secretase-modulating activity: Aβtotal in supernatant of SKNBE2 cells carrying hAPP 695 wild type (Alphalisa); assay type: cell-based, human; conditions: overnight incubation, Alphalisa on supernatant
Summary of the method: as §1

[3] = Homo sapiens, SKNBE2, SKNBE2 human neuroblastoma cells carrying hAPP 695 wild type
[4] = SKNBE2 human neuroblastoma cells carrying hAPP 695 wild type

pIC50 [1, 3] | pIC50 [2, 3] | melting point [°C] | pIC50 [1, 4] | pIC50 [2, 4] | SMILES
6.61 | < 5.00 | 208.6 |  |  | N#Cc1ccc2[nH]c(-c3nc4n(n3)CCCC4c3ccccc3Cl)cc2c1 (stereo not drawn) [Compound 62, 2-[8-(2-chlorophenyl)-5,6,7,8-tetrahydro[1,2,4]triazolo[1,5-a]pyridin-2-yl]-1H-indole-5-carbonitrile]
7.59 | < 5.00 | 191.8 |  |  | Cc1cc(-c2ccc3[nH]c(-c4cn5c(n4)C(c4ccc(F)cc4C)OCC5)cc3c2)ccn1 (stereo not drawn) [Compound 103, 8-(4-fluoro-2-methylphenyl)-5,6-dihydro-2-[5-(2-methyl-4-pyridinyl)-1H-indol-2-yl]-8H-imidazo[2,1-c][1,4]oxazine]
7.48 | < 5.00 | 285.1 |  |  | Cc1cn(-c2ccc3[nH]c(-c4nc5n(n4)CCOC5c4cc(F)c(F)c(C)c4C)cc3c2)cn1 (stereo not drawn) [Compound 116, 8-(4,5-difluoro-2,3-dimethylphenyl)-5,6-dihydro-2-[5-(4-methyl-1H-imidazol-1-yl)-1H-indol-2-yl]-8H-[1,2,4]triazolo[5,1-c][1,4]oxazine]
 |  | 197.5 | 7.31 | < 5.00 | COc1c(C#N)ccc2[nH]c(-c3nc4n(n3)CCOC4c3ccccc3Cl)cc12 (stereo not drawn) [Compound 137, 2-[8-(2-chlorophenyl)-5,6-dihydro-8H-[1,2,4]triazolo[5,1-c][1,4]oxazin-2-yl]-4-methoxy-1H-indole-5-carbonitrile]

Further lines, the compound ahead of its results:

SMILES | pIC50 [1, 3] | pIC50 [2, 3] | melting point [°C] | pIC50 [1, 4] | pIC50 [2, 4]
N#Cc1ccc2cc(-c3nc4n(n3)CCCC4c3ccccc3C(F)(F)F)[nH]c2c1 (stereo not drawn) [Compound 61, 2-[5,6,7,8-tetrahydro-8-[2-(trifluoromethyl)phenyl][1,2,4]triazolo[1,5-a]pyridin-2-yl]-1H-indole-6-carbonitrile] | 5.40 | < 5.00 | 175.7 |  | 
COc1ccccc1C1CCCn2cc(-c3cc4cc(C#N)ccc4[nH]3)nc21 (stereo not drawn) [Compound 67, 2-[5,6,7,8-tetrahydro-8-(2-methoxyphenyl)imidazo[1,2-a]pyridin-2-yl]-1H-indole-5-carbonitrile] | 6.30 | < 5.00 | 251 |  | 
Cc1cc(F)ccc1C1CCCn2cc(-c3cc4cc(C#N)ncc4[nH]3)nc21 (stereo not drawn) [Compound 72, 2-[8-(4-fluoro-2-methylphenyl)-5,6,7,8-tetrahydroimidazo[1,2-a]pyridin-2-yl]-1H-pyrrolo[2,3-c]pyridine-5-carbonitrile] | 6.90 | < 5.00 | 255.5 |  | 
Cc1cn(-c2ccc3[nH]c(-c4nc5n(n4)CCOC5c4ccc(F)cc4C(C)C)cc3c2)cn1 (stereo not drawn) [Compound 100, 8-[4-fluoro-2-(1-methylethyl)phenyl]-5,6-dihydro-2-[5-(4-methyl-1H-imidazol-1-yl)-1H-indol-2-yl]-8H-[1,2,4]triazolo[5,1-c][1,4]oxazine] | 7.32 | < 5.00 | 297.5 |  | 
CCc1cc(F)ccc1C1OCCn2nc(-c3cc4cc(-n5cnc(C)c5)ccc4[nH]3)nc21 (stereo not drawn) [Compound 105, 8-(2-ethyl-4-fluorophenyl)-5,6-dihydro-2-[5-(4-methyl-1H-imidazol-1-yl)-1H-indol-2-yl]-8H-[1,2,4]triazolo[5,1-c][1,4]oxazine] | 7.47 | < 5.00 | 285.7 |  | 
Cc1cc(F)ccc1C1OCCn2nc(-c3cc4nc(-c5cnn(C)c5)ccc4[nH]3)nc21 (stereo not drawn) [Compound 106, 8-(4-fluoro-2-methylphenyl)-5,6-dihydro-2-[5-(1-methyl-1H-pyrazol-4-yl)-1H-pyrrolo[3,2-b]pyridin-2-yl]-8H-[1,2,4]triazolo[5,1-c][1,4]oxazine] | 6.35 | < 5.00 | 263.8 |  | 
COc1c(C#N)ccc2[nH]c(-c3nc4n(n3)CCOC4c3ccc(F)cc3C)cc12 (stereo not drawn) [Compound 115, 2-[8-(4-fluoro-2-methylphenyl)-5,6-dihydro-8H-[1,2,4]triazolo[5,1-c][1,4]oxazin-2-yl]-4-methoxy-1H-indole-5-carbonitrile] |  |  | 257.4 | 5.83 | < 5.00
